Measured values taken from ChEMBL document CHEMBL5052821, “Galactokinase inhibitors for the treatment and prevention of associated diseases and disorders” (2019).
Activity calls are given as the source filed them. No rule for the calls is given here.

system: Bacteria; test: Inhibition of bacterial CDP-ME kinase assessed as ATP depletion up to 57 uM measured by bioluminescent kinase Glo assay; settings: dose microM <=57

inhibition, inactive:
CC1=C(C(=O)N(C)C)C(c2ccccc2Br)N=C(Nc2nc3ccccc3o2)N1 (stereo not drawn), COc1ccccc1NC(=O)C1=C(C)NC(Nc2nc3ccccc3o2)=NC1c1ccccc1Br (stereo not drawn), Cn1ncc(Cl)c1C1N=C(Nc2nc3ccccc3o2)NC2=C1C(=O)CCC2 (stereo not drawn), CC1=C(C(=O)NC2CC2)C(c2nn(C)cc2Cl)N=C(Nc2nc3ccccc3o2)N1 (stereo not drawn), O=C1CCCC2=C1C(c1cccnc1Br)N=C(Nc1nc3ccccc3o1)N2 (stereo not drawn), O=C1CCCC2=C1C(c1ccncc1Br)N=C(Nc1nc3ccccc3o1)N2 (stereo not drawn), Cc1cc(C2N=C(Nc3nc4ccccc4o3)NC3=C2C(=O)CCC3)n[nH]1 (stereo not drawn), CC1=C(C(=O)NC2CCCC2)C(c2n[nH]cc2Cl)N=C(Nc2nc3ccccc3o2)N1 (stereo not drawn), CC1=C(C(=O)Nc2ccccc2)C(c2ccccc2Br)N=C(Nc2nc3ccccc3o2)N1 (stereo not drawn), CNC(=O)C1=C(C)NC(Nc2nc3ccccc3o2)=NC1c1n[nH]cc1Cl (stereo not drawn), CNC(=O)C1=C(C)NC(Nc2nc3ccccc3o2)=NC1c1nn(C)cc1Cl (stereo not drawn), CC1=C(C(=O)n2ccc3ccccc32)C(c2ccccc2Br)N=C(Nc2nc3ccccc3o2)N1 (stereo not drawn), Cc1cccc(C2N=C(Nc3nc4ccccc4o3)NC3=C2C(=O)CCC3)c1 (stereo not drawn), O=C1CCCC2=C1C1(CCCC1)N=C(Nc1nc3cc(-c4ccccc4)ccc3o1)N2, O=C1CCCC2=C1C1(CCS(=O)(=O)C1)N=C(Nc1nc3ccccc3o1)N2 (stereo not drawn), O=C1CCCC2=C1C(c1ncccc1Br)N=C(Nc1nc3ccccc3o1)N2 (stereo not drawn), O=C1CCCC2=C1C(c1ccn[nH]1)N=C(Nc1nc3ccccc3o1)N2 (stereo not drawn), CC1=C(C(=O)Nc2ccccc2C)C(c2ccccc2Br)N=C(Nc2nc3ccccc3o2)N1 (stereo not drawn), CC1=C(C(=O)Nc2nccs2)C(c2ccccc2Br)N=C(Nc2nc3ccccc3o2)N1 (stereo not drawn), CCC1CCC2(C1)N=C(Nc1nc3ccccc3o1)NC1=C2C(=O)CCC1 (stereo not drawn), COc1ccc(NC(=O)C2=C(C)NC(Nc3nc4ccccc4o3)=NC2c2ccccc2Br)cc1 (stereo not drawn), CC1=C(C(=O)Nc2nc3ccccc3s2)C2(CCCC2)N=C(Nc2nc3ccccc3o2)N1, O=C1CC(c2ccccc2)CC2=C1C1(CCCC1)N=C(Nc1nc3ccccc3o1)N2 (stereo not drawn), CC1=C(C(=O)NCc2ccccc2)C(c2ccccc2Br)N=C(Nc2nc3ccccc3o2)N1 (stereo not drawn), O=C1CCCC2=C1C(c1ccccc1C(F)(F)F)N=C(Nc1nc3ccccc3o1)N2 (stereo not drawn), O=C1CCCC2=C1C(c1ccncc1)N=C(Nc1nc3ccccc3o1)N2 (stereo not drawn), O=C1CCCC2=C1C1(CCCOC1)N=C(Nc1nc3ccccc3o1)N2 (stereo not drawn), O=C1CCCC2=C1C(c1ccccc1I)N=C(Nc1nc3ccccc3o1)N2 (stereo not drawn), O=C1CCCC2=C1C(c1n[nH]cc1Cl)NC(Nc1nc3ccccc3o1)=N2 (stereo not drawn), CC1=C(C(=O)Nc2nc3ccccc3o2)C2(CCCC2)N=C(Nc2nc3ccccc3o2)N1, CC1=C(C(=O)Nc2nncs2)C(c2ccccc2Br)N=C(Nc2nc3ccccc3o2)N1 (stereo not drawn), CC1=C(C(=O)Nc2ccon2)C(c2ccccc2Br)N=C(Nc2nc3ccccc3o2)N1 (stereo not drawn), CC1CCC2(C1)N=C(Nc1nc3ccccc3o1)NC1=C2C(=O)CCC1 (stereo not drawn)
